Results reported in patent publication US12473283B2, “Compounds and their use” (Debiopharm International S.A., priority 2019, dated 2025).
≈ marks a conversion by molar mass, not a printed value. Where two headings read alike, the source gives them in different places.

Key:
[1] = target: FabI enzyme from Acinetobacter baumannii (Acinetobacter baumannii, UniProt D0CAD5); experiment: Inhibition of FabI enzyme, rate of NADH consumption; type: biochemical
Protocol: Inhibition of FabI enzyme from Acinetobacter baumannii and Escherichia coli was tested by measuring the rate of NADH consumption (Δabsorbance at 340 nm/min) at 30° C. in 96-well plate format using an automated plate reader in the presence or absence of the test compounds. The assay mixture contained 100 mM Tris-HCl, pH 7.25 (A. baumannii) or 7.5 (E. coli), 100 mM ammonium acetate, 0.02% (A. baumannii) or 0.05% (E. coli) Pluronic F-68, 25 μM crotonyl ACP, 50 μM NADH, 25 pM (A. baumannii) or 50 pM (E. coli) recombinant FabI protein, and 7.5% DMSO. Test compounds were added at concentrations ranging from 0.17 to 10,000 nM in a final well volume of 100 μl. This dose-response inhibitory assay was performed using a 10-point, serial dilution series for each test compound. IC50 values for each test compound were assigned from logistical sigmoid curve-fitting of the inhibition dose response curves.

[2] = tested on: A. baumannii ATCC BAA1605; experiment: Broth microdilution MIC assay; type: cell-based; settings: Acinetobacter baumannii, ATCCBAA1605; CA-MHB, 35° C., 20 hours
Protocol: (§1) The antibacterial activity of FabI inhibitors against select Gram-negative and Gram-positive bacterial species including susceptible and multi-drug resistant A. baumannii, E. coli, K. pneumoniae and S. aureus was tested using the broth microdilution Minimal Inhibitory Concentration (MIC) assay following CLSI guidelines for insoluble compounds. Test articles were serially diluted 2-fold in 100% dimethyl sulfoxide (DMSO) and then diluted 100-fold into cation adjusted Mueller-Hinton broth (CA-MHB) to achieve a 10-point test concentration range in 1% DMSO. Final compound concentrations were 0.016-8 μg/ml for S. aureus or 0.06-32 μg/ml for the Gram-negative species. MIC test plates were then prepared by transferring 100 μl of the final assay medium (test article in CA-MHB, 1% DMSO) into the appropriate wells of a sterile, low binding 96-well polystyrene plate. Direct colony suspension inoculums of the test strains were freshly prepared per CLSI guidelines, and the appropriate test wells were inoculated to achieve a final bacterial cell density of 5×10^5 CFU/ml. Growth control (no test article) and negative control (no bacterial inoculum) wells were also included. Exposure to light was minimized during all stages of assay preparation. […] Bacterial growth was then determined by measuring the optical density at 600 nm (OD600) using a SpectraMax Plus plate-reader spectrophotometer.

E. coli AG100 = experiment: Broth microdilution MIC assay; type: cell-based; settings: Escherichia coli, CA-MHB, 35° C., 20 hours
Protocol: as §1

K. pneumoniae A6030827 = experiment: Broth microdilution MIC assay; type: cell-based; settings: Klebsiella pneumoniae, CA-MHB, 35° C., 20 hours
Protocol: as §1

S. aureus ATCC 29213 = experiment: Broth microdilution MIC assay; type: cell-based; settings: Staphylococcus aureus, ATCC29213; CA-MHB, 35° C., 20 hours
Protocol: as §1

[3] = tested on: Acinetobacter baumannii ATCC 17978; experiment: Mouse thigh infection model; type: in vivo, BALB/c mice; settings: 3 mg/kg q12h SC
Protocol: (§2) Groups of 5 female specific-pathogen-free BALB/c mice weighing 18±2 g were used. In the 24 hr model (bacterial counts determined 24 hr after treatment start), mice were rendered neutropenic with cyclophosphamide intraperitoneal (IP) administration conducted at Days −4 (150 mg/kg), and day −1 (100 mg/kg). In the 72 hr model (bacterial counts determined 72 hr after treatment start), animals were rendered persistently neutropenic for the duration of the infection period with cyclophosphamide intraperitoneal (IP) administration conducted at Days −4 (150 mg/kg), −1 (100 mg/kg) and +1 (100 mg/kg). Persistent neutropenia is required to prevent pathogen clearance from thigh tissue in the 74 hr model. Nutritional supplementation (diet gel) plus saline SC injections were provided daily to help animals tolerate the cyclophosphamide treatment.
On day 0, animals were inoculated intramuscularly (0.1 ml/thigh) with a 1.67×10^4 inoculum count of Acinetobacter baumannii ATCC 17978. Vehicle control (40% Captisol), positive control (tigecycline) or test substances were then administered 2 hr post infection by the subcutaneous (SC) route of administration. Each dosing group consisted of 5 female mice. The MICs of the compounds against the test strain were 8 μg/ml, 2 μg/ml and […] for compound 201, compound 71 and compound 200, respectively. At 26 or 74 hours after inoculation (24 or 72 hr after treatment initiation), animals were euthanized with CO2 asphyxiation and the thigh tissue harvested from each of the test animals. The tissues were homogenized in 3 mL of PBS, pH 7.4 with a homogenizer. Homogenates, 0.1 mL, were used for serial 10-fold dilutions and plated onto NB agar for colony counts. Efficacy is calculated as the change in log CFU/g thigh vs. the time 0 (treatment initiation) control.

A. baumannil ATCC 17978 = experiment: Mouse lung infection model; type: in vivo, BALB/c mice; settings: 3 mg/kg q12h SC
Protocol: as §2, with “lung” for “thigh”
On day 0, animals were anesthetized with etomidate-lipuro emulsion (20 mg/10 mL; 20 mg/kg dose, IV) and then inoculated intranasally with an A. baumannil ATCC 17978 suspension, 1.36×10^5 CFU/mouse, 0.02 mL/mouse. Vehicle control (40% Captisol), positive control (tigecycline) or test substances were then administered 2 hr post infection by the subcutaneous (SC) route of administration. Each dosing group consisted of 5 female mice. The MICs of the compounds against the test strain were 8 μg/ml and 0.5 μg/ml for compound 201 and compound 200, respectively. At 26 or 74 hours after inoculation (24 or 72 hr after treatment initiation), animals were euthanized with CO2 asphyxiation and the lung tissue harvested from each of the test animals. The tissues were homogenized in 1 ml of PBS, pH 7.4 with a homogenizer. Homogenates, 0.1 mL, were used for serial 10-fold dilutions and plated onto MacConkey II agar for colony counts. Efficacy is calculated as the change in log CFU/g […] vs. the time 0 (treatment initiation) control.

[4] = recombinant FabI, 30° C., pH 7.25, read-out: A. baumannii Fabl IC50
[5] = total daily dose 6 mg/kg, 24 hr treatment
[6] = total daily dose 6 mg/kg, 72 hr treatment

Chain of FabI enzyme from Acinetobacter baumannii (D0CAD5 entry or part of it): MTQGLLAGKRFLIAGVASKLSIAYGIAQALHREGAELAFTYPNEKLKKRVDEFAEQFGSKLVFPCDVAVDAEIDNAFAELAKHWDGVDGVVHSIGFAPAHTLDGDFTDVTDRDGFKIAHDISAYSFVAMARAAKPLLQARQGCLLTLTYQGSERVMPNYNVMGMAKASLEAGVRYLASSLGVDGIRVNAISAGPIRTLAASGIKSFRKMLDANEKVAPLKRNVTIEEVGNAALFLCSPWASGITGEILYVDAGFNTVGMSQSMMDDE

| Structure (SMILES) | IC50 [1] [nM] | MIC [2] [µg/mL] | MIC (E. coli AG100) [µg/mL] | MIC (K. pneumoniae A6030827) [µg/mL] | MIC (S. aureus ATCC 29213) [µg/mL] | further results |
| --- | --- | --- | --- | --- | --- | --- |
| Cc1c(CN(C)C(=O)/C=C/c2cnc3c(c2)CC[C@H](N)C(=O)N3)oc2c(Cl)cccc12.Cl (single isomer, unassigned) [Compound 98, hydrochloride] | < 10 |  |  |  |  |  |
| Cc1c(CN(C)C(=O)/C=C/c2cnc3c(c2)CC[C@H](N)C(=O)N3)oc2c(Cl)cccc12.Cl (single isomer, unassigned) [Compound 98] |  | ≤ 4 | ≤ 4 | ≤ 4 | ≤ 4 |  |
| Cc1c(CN(C)C(=O)/C=C/c2cnc3c(c2)CC[C@H](N)C(=O)N3)oc2c(F)cccc12.Cl (single isomer, unassigned) [Compound 107, hydrochloride] | < 10 |  |  |  |  |  |
| Cc1c(CN(C)C(=O)/C=C/c2cnc3c(c2)CC[C@H](N)C(=O)N3)oc2c(F)cccc12.Cl (single isomer, unassigned) [Compound 107] |  | ≤ 4 | ≤ 4 | ≤ 4 | ≤ 4 |  |
| Cc1c(CN(C)C(=O)/C=C/c2cnc3c(c2)CC[C@H](N)C(=O)N3)sc2ccccc12.Cl (single isomer, unassigned) [Compound 119] |  | ≤ 4 | ≤ 4 | ≤ 4 | ≤ 4 |  |
| Cc1c(CN(C)C(=O)/C=C/c2cnc3c(c2)CC[C@H](N)C(=O)N3)oc2cccc(F)c12.Cl (single isomer, unassigned) [Compound 130, hydrochloride] | < 10 |  |  |  |  |  |
| Cc1c(CN(C)C(=O)/C=C/c2cnc3c(c2)CC[C@H](N)C(=O)N3)oc2cccc(F)c12.Cl (single isomer, unassigned) [Compound 130] |  | ≤ 4 | ≤ 4 | ≤ 4 | ≤ 4 |  |
| Cc1c(CN(C)C(=O)/C=C/c2cnc3c(c2)CC[C@H](N)C(=O)N3)sc2c(F)cccc12.Cl (single isomer, unassigned) [Compound 140, hydrochloride] | < 10 |  |  |  |  |  |
| Cc1c(CN(C)C(=O)/C=C/c2cnc3c(c2)CC[C@H](N)C(=O)N3)sc2c(F)cccc12.Cl (single isomer, unassigned) [Compound 140] |  | ≤ 4 | ≤ 4 | ≤ 4 | ≤ 4 |  |
| Cc1c(CN(C)C(=O)/C=C/c2cnc3c(c2)CC[C@H](N)C(=O)N3)oc2ccc(Oc3cccnc3)cc12.Cl (single isomer, unassigned) [Compound 151, hydrochloride] | < 10 |  |  |  |  |  |
| Cc1c(CN(C)C(=O)/C=C/c2cnc3c(c2)CC[C@H](N)C(=O)N3)oc2ccc(Oc3cccnc3)cc12.Cl (single isomer, unassigned) [Compound 151] |  |  | ≤ 4 | ≤ 4 | ≤ 4 |  |
| Cc1c(CN(C)C(=O)/C=C/c2cnc3c(c2)CC[C@H](N)C(=O)N3)oc2cccc(CNc3cccnc3)c12.Cl.Cl (single isomer, unassigned) [Compound 167, dihydrochloride] | < 10 |  |  |  |  |  |
| Cc1c(CN(C)C(=O)/C=C/c2cnc3c(c2)CC[C@H](N)C(=O)N3)oc2cccc(CNc3cccnc3)c12.Cl.Cl (single isomer, unassigned) [Compound 167] |  | ≤ 4 | ≤ 4 | ≤ 4 | ≤ 4 |  |
| CC(=O)NC1CNc2cc(/C=C/C(=O)N(C)Cc3oc4ccccc4c3C)cnc2NC1=O (stereo not shown) [Compound 42, (E)-3-(3-acetamido-4-oxo-2,3,4,5-tetrahydro-1H-pyrido[2,3-b][1,4]diazepin-8-yl)-N-methyl-N-((3-methylbenzofuran-2-yl)methyl)acrylamide] |  | ≤ 4 |  |  | ≤ 4 |  |
| Cc1c(CN(C)C(=O)/C=C/c2cnc3c(c2)N[C@H](C)[C@H](N)C(=O)N3)oc2ccccc12 [Compound 52, (E)-3-((2R,3S)-3-amino-2-methyl-4-oxo-2,3,4,5-tetrahydro-1H-pyrido[2,3-b][1,4]diazepin-8-yl)-N-methyl-N-((3-methylbenzofuran-2-yl)methyl)acrylamide] |  | ≤ 4 | ≤ 4 |  | ≤ 4 | IC50 [1, 4]: < 10 nM |
| Cc1oc2c(N)cccc2c1CN(C)C(=O)/C=C/c1cnc2c(c1)N[C@H](C)[C@H](N)C(=O)N2 [Compound 62, (E)-3-((2R,3S)-3-amino-2-methyl-4-oxo-2,3,4,5-tetrahydro-1H-pyrido[2,3-b][1,4]diazepin-8-yl)-N-((7-amino-2-methylbenzofuran-3-yl)methyl)-N-methylacrylamide] |  | ≤ 4 | ≤ 4 |  | ≤ 4 | IC50 [1, 4]: < 10 nM |
| Cc1c(CN(C)C(=O)/C=C/c2cnc3c(c2)CCC(N2CCN(S(C)(=O)=O)CC2)C(=O)N3)oc2ccccc12 (stereo not shown) [Compound 187, (E)-N-methyl-N-((3-methylbenzofuran-2-yl)methyl)-3-(7-(4-(methylsulfonyl)piperazin-1-yl)-8-oxo-6,7,8,9-tetrahydro-5H-pyrido[2,3-b]azepin-3-yl)acrylamide] |  | ≤ 4 | 16 (≈ 29 µM) |  | ≤ 4 | IC50 [1, 4]: < 10 nM |
| CN(C)c1cc(NC(=O)CNC(C)(C)C)c(O)c2c1C[C@H]1C[C@H]3[C@H](N(C)C)C(O)=C(C(N)=O)C(=O)[C@@]3(O)C(O)=C1C2=O [Tigecycline, reference compound] |  |  |  |  |  | Mean Change log CFU/g thigh 24 hr ([3]; 24 hr, vs. time 0 control): −2.48 log CFU/g thigh; Mean Change log CFU/g thigh 72 hr ([3]; 72 hr, vs. time 0 control): −3.48 log CFU/g thigh; Mean Log CFU/g thigh 24 hr [3, 5]: 2.37 log CFU/g thigh; Mean Log CFU/g thigh 72 hr [3, 6]: 1.36 log CFU/g thigh; Mean change log CFU/g lung 24 hr (A. baumannil ATCC 17978; 24 hr, vs. time 0 control): −3.44 log CFU/g lung; Mean change log CFU/g lung 72 hr (A. baumannil ATCC 17978; 72 hr, vs. time 0 control): −4.74 log CFU/g lung; Mean Log CFU/g lung 24 hr (A. baumannil ATCC 17978; [5]): 2.87 log CFU/g lung; Mean Log CFU/g lung 72 hr (A. baumannil ATCC 17978; [6]): 1.57 log CFU/g lung |
